Each structure is given as a SMILES string. “And” between values parts separate entries of the source, which are not always exact repeats. Identical values can stand only once.

For the first assay, the target named is T1, PAF specific receptor binding site (human platelet membranes) (Homo sapiens, UniProt P25105).
T1 construct: platelet membranes at a drug concentration of 3 nM; from tissue; host or cells: human platelet plasma membranes
T1 sequence (P25105 whole entry): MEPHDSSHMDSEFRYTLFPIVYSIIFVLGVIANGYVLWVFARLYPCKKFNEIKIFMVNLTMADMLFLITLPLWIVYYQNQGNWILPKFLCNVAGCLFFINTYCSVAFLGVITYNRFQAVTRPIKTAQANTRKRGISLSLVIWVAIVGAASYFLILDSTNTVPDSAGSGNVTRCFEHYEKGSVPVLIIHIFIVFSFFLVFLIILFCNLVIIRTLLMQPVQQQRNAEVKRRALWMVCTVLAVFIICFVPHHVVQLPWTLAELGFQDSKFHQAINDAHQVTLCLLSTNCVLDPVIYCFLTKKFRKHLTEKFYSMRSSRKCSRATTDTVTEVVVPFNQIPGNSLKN
The assay is described as follows: Inhibition of [3H]N-methylcarbamoyl-PAF binding to human platelet membranes. The note with it: drug concentration of 3 nM, trans configuration. On the procedure:
The ability of a compound of formula (I) to inhibit the PAF binding to its specific receptor binding site on rabbit or human platelet or PMN plasma membranes was measured by a recently developed assay.
The inhibition of ^3 [H]-PAF or ^3 [H]-N-methyl carbamoyl-TAF binding to the human or rabbit platelet or PMN plasma membrane by a PAF antagonist of formula (I) was determined by a method employing isotopic labeling and filtration techniques. Generally, a series of Tris-buffered solutions of the selected antagonist at predetermined concentrations were prepared. Each of these solutions contains 1 pmole of ^3 H-PAF, a known amount of the test antagonist, and a sufficient amount of the pH 7.5 Tris-buffer solution (10mM Tris, 0.25% bovine serum albumin, and 150 mM NaCl per ml water) to make the final volume of 1 ml. After adding into a set of test tubes each with 100 μg of the platelet plasma membrane suspension (S. B. Hwang, et. al., Biochemistry, Vol. 22 pp. 4756-4763, 1983) and one of the Tris-buffer solutions described above, the resulting mixture in each test tube was incubated at 0° C. for about one hours or until the reaction was complete. Two control samples, one of which (C1) contains all the ingredients described above except the antagonist and the other (C2) contains C1 plus a 100-fold excess of unlabeled PAF, were also prepared and incubated simultaneously with the test samples. After the incubation was completed, the contents of each test tube were filtered under vacuo through a Whatman GF/C fiberglass filter and the residue washed rapidly several times with a total of 20 ml cold (0°-5° C.) Tris-buffer solution. Each washed residue was then suspended in 10 ml scintillation solution (Aquasol 2, New England Nuclear, Conn.) and the radioactivity was counted in a Packard Tri-Carb 460CD Liquid Scintillation System. Defining the counts from a test sample as "Total binding with antagonist"; the counts from the control sample C1, as "Total binding C1 "; and the counts from the control sample C2 as "non-specific binding C2 ", the percent inhibition of each test antagonist can be determined by the following equations: [formula]
By inhibition is commonly meant how much of the control response was suppressed. The low end stands for a weak effect, the high end for a strong effect. For the compound `CCCOc1c(OCCCSc2ncc[nH]2)cc([C@H]2CC[C@H](c3cc(OC)c(OC)c(OC)c3)O2)cc1S(=O)(=O)CC(C)=O` (relative stereo) [trans-2-[3-(2-Oxopropylsulfonyl)-4-n-propoxy-5-{3-(2-imidazolylthio)propoxy}phenyl]-5-(3,4,5-trimethoxyphenyl)tetrahydrofuran], the inhibition at 0.003 µM worked out at 45%. Same read-out and setting: next, `CCCS(=O)(=O)c1cc([C@@H]2CC[C@@H](c3cc(OC)c(OC)c(OC)c3)O2)cc(OC)c1OCCSc1ccc(-c2nn[nH]n2)cc1` (relative stereo) [trans-2-[3-n-Propylsulfonyl-4-{2-(4-(2-tetrazo)phenylthio)ethoxy}-5-methoxyphenyl]-5-(3,4,5-trimethoxyphenyl)tetrahydrofuran]: 52%; `CCCS(=O)(=O)c1cc([C@H]2CC[C@H](c3cc(OC)c(OC)c(OC)c3)O2)cc(OC)c1OCCSc1ccc(C(=N)N)cc1` (relative stereo) [trans-2-[3-n-Propylsulfonyl-4-{2-(4-amidinophenylthio)ethoxy}-5-methoxyphenyl]-5-(3,4,5-trimethoxyphenyl)tetrahydrofuran]: 60%; `CCCS(=O)(=O)c1cc([C@H]2CC[C@H](c3cc(OC)c(OC)c(OC)c3)O2)cc(OC)c1OCCSc1ccncc1` (relative stereo) [trans-2-[3-n-Propylsulfonyl-4-{2-(4-pyridylthio)ethoxy}-5-methoxyphenyl]-5-(3,4,5-trimethoxyphenyl) tetrahydrofuran]: 73%.

In turn, `CCCOc1c(OCCN2CCOCC2)cc([C@@H]2CC[C@@H](c3cc(OC)c(OC)c(OC)c3)O2)cc1S(=O)(=O)CC(C)=O` (relative stereo) [trans-2-[3-(2-Oxopropylsulfonyl)-4-n-propoxy-5-{2-(1-morpholino)-ethoxy}phenyl]-5-(3,4,5-trimethoxyphenyl)tetrahydrofuran] came in with an inhibition at 0.003 µM of 25%. On the same count and under the same terms, next, `CCCS(=O)(=O)c1cc([C@@H]2CC[C@@H](c3cc(OC)c(OC)c(OC)c3)O2)cc(OCCCN2CCOCC2)c1OCCCCCCO` (relative stereo) [trans-2-]3-n-Propylsulfonyl-4-(6-hydroxyhexyloxy)-5-{3-(1-morpholino)n-propoxy}phenyl]-5-trimethoxyphenyl)tetrahydrofuran]: 48%; `CCCOc1c(OCCCSc2nc[nH]n2)cc([C@@H]2CC[C@@H](c3cc(OC)c(OC)c(OC)c3)O2)cc1S(=O)(=O)CC(C)=O` (relative stereo) [trans-2-[3-(2-Oxopropylsulfonyl)-4-n-propoxy-5-{3-(1H-1,2,4-triazolyl-3-thio)n-propoxy}phenyl]-5-(3,4,5-trimethoxyphenyl)tetrahydrofuran]: 69%. The same measure, in the same setting: next, `CCCOc1c(OCCCN2CCCC2)cc([C@@H]2CC[C@@H](c3cc(OC)c(OC)c(OC)c3)O2)cc1S(=O)(=O)CC(C)=O` (relative stereo) [trans-2-[3-(2-Oxopropylsulfonyl)-4-n-propoxy-5-{3-(1-pyrrolidino)-n-propoxy}phenyl]-5-(3,4,5-trimethoxyphenyl)tetrahydrofuran]: 48%; `CCCOc1c(OCCCCSc2ncc[nH]2)cc([C@H]2CC[C@H](c3cc(OC)c(OC)c(OC)c3)O2)cc1S(=O)(=O)CC(C)=O` (relative stereo) [trans-2-[3-(2-Oxopropylsulfonyl)-4-n-propoxy-5-{4-(2-imidazolylthio)butoxy}phenyl]-5-(3,4,5-trimethoxyphenyl)tetrahydrofuran]: 60%. The same measure, in the same setting: to `CCCOc1cc([C@@H]2CC[C@@H](c3cc(OC)c(OC)c(OC)c3)O2)cc(S(=O)(=O)CCN2CCCC2)c1OCCC` (relative stereo) [trans-2-[3-(2-N-Pyrrolidinylethylsulfonyl)-4,5-dipropoxyphenyl]-5-(3,4,5-trimethoxyphenyl) tetrahydrofuran] belongs 18%; to `CCCOc1c(OCCCCn2ccnc2)cc([C@H]2CC[C@H](c3cc(OC)c(OC)c(OC)c3)O2)cc1S(=O)(=O)CC(C)O` (relative stereo) [trans-2-[3-(2-Hydroxy-n-propylsulfonyl)-4-n-propoxy-5-{4-(1-imidazolyl)butoxy}phenyl]-5-(3,4,5-trimethoxyphenyl)tetrahydrofuran], 43%; to `CCCS(=O)(=O)c1cc([C@@H]2CC[C@@H](c3cc(OC)c(OC)c(OC)c3)O2)cc(OC)c1OCCSc1ncc[nH]1` (relative stereo) [trans-2-[3-n-Propylsulfonyl-4-{2-(2-imidazolthio)ethoxy}-5-methoxyphenyl]-5-(3,4,5-trimethoxyphenyl) tetrahydrofuran], 60%. For `CCCOc1c(OCCSc2ncc[nH]2)cc([C@H]2CC[C@H](c3cc(OC)c(OC)c(OC)c3)O2)cc1S(=O)(=O)CC(C)O` (relative stereo) [trans-2-[3-(2-Hydroxy-n-propylsulfonyl)-4-n-propoxy-5-{2-(2-imidazolylthio)ethoxy}phenyl]-5-(3,4,5-trimethoxyphenyl)tetrahydrofuran], 0.003 µM produced 34% inhibition. On the same count and under the same terms, to `CCCOc1c(OCCn2ccnc2)cc([C@@H]2CC[C@@H](c3cc(OC)c(OC)c(OC)c3)O2)cc1S(=O)(=O)CC(C)O` (relative stereo) [trans-2-[3-(2-Hydroxy-n-propylsulfonyl-4-n-propoxy-5-{2-(1-imidazolyl)ethoxy}phenyl]-5-(3,4,5-trimethoxyphenyl)tetrahydrofuran] belongs 48%; to `CCCS(=O)(=O)c1cc([C@H]2CC[C@H](c3cc(OC)c(OC)c(OC)c3)O2)cc(OC)c1OCCSc1ccc(C#N)cc1` (relative stereo) [trans-2-[3-n-Propylsulfonyl-4-{2-(4-cyanophenylthio)ethoxy}-5-methoxyphenyl]-5-(3,4,5-trimethoxyphenyl) tetrahydrofuran], 93%. Still for that read-out and setting: to `CCCS(=O)(=O)c1cc([C@@H]2CC[C@@H](c3cc(OC)c(OC)c(OC)c3)O2)cc(OC)c1OCCSc1nc[nH]n1` (relative stereo) [trans-2-[3-n-Propylsulfonyl-4-{2-(3-triazolthio)ethoxy}-5-methoxyphenyl]-5-(3,4,5-trimethoxyphenyl) tetrahydrofuran] belongs 23%; to `CCCOc1c(OCCCN2CCOCC2)cc([C@@H]2CC[C@@H](c3cc(OC)c(OC)c(OC)c3)O2)cc1S(=O)(=O)CC(C)=O` (relative stereo) [trans-2-[3-(2-oxopropylsulfonyl)-4-n-propoxy-5-{3-(1-morpholino)-n-propoxy}phenyl]-5-(3,4,5-trimethoxyphenyl)tetrahydrofuran], 31%; to `CCCS(=O)(=O)c1cc([C@H]2CC[C@H](c3cc(OC)c(OC)c(OC)c3)O2)cc(OC)c1OCCSc1ccc(N(C)C)cc1` (relative stereo) [trans-2-[3-n-Propylsulfonyl-4-{2-(4-dimethylaminophenylthio)ethoxy}-5-methoxyphenyl]-5-(3,4,5-trimethoxyphenyl)tetrahydrofuran], 66%.

Still in this assay, the particulars now being: drug concentration of 3 nM, trans configuration, 0.003 µM.
On to `CCCS(=O)(=O)c1cc([C@H]2CC[C@H](c3cc(OC)c(OC)c(OC)c3)O2)cc(OC)c1OCCSc1ccc(O)cc1` (relative stereo) [trans-2-[3-Propylsulfonyl-4-{2-(4-hydroxyphenylthio)-ethoxy}-5-methoxyphenyl]-5-(3,4,5-trimethoxyphenyl) tetrahydrofuran], for which the “% Inhibition of the binding of [3H]N-methylcarbamoyl-PAF to human platelet membranes” value was 60% and 100%.

The record behind these values is US5114961A, “2,5-diaryl tetrahydrofurans and analogs thereof as PAF antagonists” (Merck & Co., Inc., priority 1990, dated 1992).
